In patent US7553864B2, “Compounds for the treatment of inflammatory disorders and microbial diseases” (Schering Corporation, priority 2005, dated 2009):

Test system: LpxC enzyme
Test: LpxC enzyme assay (RapidFire high-throughput mass spectrometry)
Type: biochemical
Experimental: The standard LpxC assay consists of 0.2 nM LpxC enzyme, 1.0 μM UDP-3-O—(R-3-hydroxymyristoyl)-N-acetylglucosamine, and test compound, in assay buffer and 2% DMSO. Assay buffer is comprised of 25 mM HEPES, pH 7.3, 150 mM NaCl, 2.0 mM DTT, and 0.01% BSA. The enzyme reaction is carried out in a 96-well assay plate, in a final volume of 102 μL. Solutions of test compounds are prepared in 100% DMSO. Reaction additions, in order, are (1) 2.0 μL compound solution, (2) 80 μL of assay buffer, (3) 10 μL of 10 μM UDP-3-O—(R-3-hydroxymyristoyl)-N-acetylglucosamine (in assay buffer) and, (4) 10 μL of LpxC enzyme (20 nM in assay buffer) to initiate the reaction. In positive control reactions, addition (1) has 2.0 μL of 100% DMSO (without compound); these reactions are used as the total signal (TSB) value. Reactions are incubated at room temperature for 60 minutes when 10 μL of 1 N HCl is added to stop the reaction. The plate is shaken by hand for 10 seconds to ensure complete quenching. Assay plates are sealed with foil tape, and stored at −80° C. for 24-48 hr prior to analysis.
The concentrations of substrate and product in the reaction mixtures are determined with BioTrove's proprietary RapidFire™ high-throughput mass spectrometry (HTMS). Assay mixtures are partially purified with reverse phase chromatography, where they are washed with water containing 5 mM ammonium formate and eluted onto the mass spectrometer in 80% acetonitrile, 20% water, and 5 mM ammonium formate. The mass spectrometry peak areas of the substrate and product are measured to determine the concentration of these analytes. The assay signal is the percentage of substrate that is converted to product. Percent inhibition, % I, in test samples is determined from the following equation: […]

[1] = concentration 0.10 (unit not given)
[2] = concentration 0.20 (unit not given)
[3] = concentration 0.39 (unit not given)
[4] = concentration 0.78 (unit not given)
[5] = concentration 1.56 (unit not given)
[6] = concentration 3.13 (unit not given)
[7] = concentration 6.25 (unit not given)
[8] = concentration 12.50 (unit not given)
[9] = concentration 25 (unit not given)
[10] = concentration 50 (unit not given)

| SMILES | LpxC enzyme assay rating (% inhibition at indicated concentrations) [1] | LpxC enzyme assay rating (% inhibition at indicated concentrations) [2] | LpxC enzyme assay rating (% inhibition at indicated concentrations) [3] | LpxC enzyme assay rating (% inhibition at indicated concentrations) [4] | LpxC enzyme assay rating (% inhibition at indicated concentrations) [5] | LpxC enzyme assay rating (% inhibition at indicated concentrations) [6] | LpxC enzyme assay rating (% inhibition at indicated concentrations) [7] | LpxC enzyme assay rating (% inhibition at indicated concentrations) [8] | LpxC enzyme assay rating (% inhibition at indicated concentrations) [9] | LpxC enzyme assay rating (% inhibition at indicated concentrations) [10] |
| --- | --- | --- | --- | --- | --- | --- | --- | --- | --- | --- |
| CCC(C)c1ccc(NC(=O)[C@H](O)[C@@H](O)C(=O)NC)cc1 (stereo partly drawn) [Compound 34] | C (less than 10% inhibition) | B (10-30% inhibition) | C (less than 10% inhibition) | B (10-30% inhibition) | B (10-30% inhibition) | C (less than 10% inhibition) | B (10-30% inhibition) | C (less than 10% inhibition) | B (10-30% inhibition) | B (10-30% inhibition) |
| CNC(=O)[C@H](O)[C@@H](O)C(=O)N1CCC(c2ccc(C(F)(F)F)cc2)CC1 [Compound 35] | C (less than 10% inhibition) | C (less than 10% inhibition) | C (less than 10% inhibition) | C (less than 10% inhibition) | B (10-30% inhibition) | C (less than 10% inhibition) | C (less than 10% inhibition) | C (less than 10% inhibition) | C (less than 10% inhibition) | B (10-30% inhibition) |
| CNC(=O)[C@H](O)[C@@H](O)C(=O)N1CCC(c2ccc3ccccc3c2)CC1 [Compound 36] | C (less than 10% inhibition) | C (less than 10% inhibition) | C (less than 10% inhibition) | C (less than 10% inhibition) | C (less than 10% inhibition) | C (less than 10% inhibition) | C (less than 10% inhibition) | C (less than 10% inhibition) | C (less than 10% inhibition) | C (less than 10% inhibition) |
| CNC(=O)[C@H](O)[C@@H](O)C(=O)N1CCN(c2ccc(-c3ncccn3)cc2)CC1 [Compound 37] | C (less than 10% inhibition) | C (less than 10% inhibition) | C (less than 10% inhibition) | C (less than 10% inhibition) | C (less than 10% inhibition) | C (less than 10% inhibition) | B (10-30% inhibition) | C (less than 10% inhibition) | B (10-30% inhibition) | C (less than 10% inhibition) |
| CNC(=O)[C@H](O)[C@@H](O)C(=O)Nc1ccc(N2CCN(C)CC2)cc1 [Compound 38] | C (less than 10% inhibition) | C (less than 10% inhibition) | C (less than 10% inhibition) | C (less than 10% inhibition) | C (less than 10% inhibition) | C (less than 10% inhibition) | C (less than 10% inhibition) | C (less than 10% inhibition) | C (less than 10% inhibition) | B (10-30% inhibition) |
| CNC(=O)[C@H](O)[C@@H](O)C(=O)Nc1ccc(OCCN(C)C)cc1 [Compound 39] | C (less than 10% inhibition) | C (less than 10% inhibition) | C (less than 10% inhibition) | B (10-30% inhibition) | C (less than 10% inhibition) | B (10-30% inhibition) | B (10-30% inhibition) | C (less than 10% inhibition) | C (less than 10% inhibition) | B (10-30% inhibition) |
| CNC(=O)[C@H](O)[C@@H](O)C(=O)Nc1ccc(OCCCN(C)C)cc1 [Compound 40] | C (less than 10% inhibition) | C (less than 10% inhibition) | C (less than 10% inhibition) | B (10-30% inhibition) | C (less than 10% inhibition) | C (less than 10% inhibition) | C (less than 10% inhibition) | B (10-30% inhibition) | B (10-30% inhibition) | C (less than 10% inhibition) |
| CNC(=O)[C@H](O)[C@@H](O)C(=O)Nc1ccc(-n2cccn2)cc1 [Compound 41] | C (less than 10% inhibition) | C (less than 10% inhibition) | C (less than 10% inhibition) | C (less than 10% inhibition) | B (10-30% inhibition) | B (10-30% inhibition) | B (10-30% inhibition) | C (less than 10% inhibition) | B (10-30% inhibition) | B (10-30% inhibition) |
| CNC(=O)[C@H](O)[C@@H](O)C(=O)Nc1ccc(-c2cc[nH]n2)cc1 [Compound 42] | C (less than 10% inhibition) | C (less than 10% inhibition) | B (10-30% inhibition) | B (10-30% inhibition) | B (10-30% inhibition) | C (less than 10% inhibition) | B (10-30% inhibition) | B (10-30% inhibition) | B (10-30% inhibition) | C (less than 10% inhibition) |
